Measurements: ChEMBL document CHEMBL4177587, “SIRT6 inhibitors with salicylate-like structure show immunosuppressive and chemosensitizing effects” (Bioorg Med Chem, 2017)
≈ marks a conversion by molar mass, not a printed value. Calls of active or inactive are those of the source. No cut-off for these calls is given here.

Columns and labels:
[1] = biological target: T1, NAD-dependent protein deacylase sirtuin-6 (Homo sapiens, UniProt Q8N6T7); assay: Inhibition of human recombinant SIRT6 assessed as reduction in NAD+-dependent deacetylase activity at 200 uM using Arg-His-Lys-Lys(epsilon-acetyl)-AMC substrate and NAD+ by fluorescence based assay
T1 sequence (Q8N6T7 whole entry): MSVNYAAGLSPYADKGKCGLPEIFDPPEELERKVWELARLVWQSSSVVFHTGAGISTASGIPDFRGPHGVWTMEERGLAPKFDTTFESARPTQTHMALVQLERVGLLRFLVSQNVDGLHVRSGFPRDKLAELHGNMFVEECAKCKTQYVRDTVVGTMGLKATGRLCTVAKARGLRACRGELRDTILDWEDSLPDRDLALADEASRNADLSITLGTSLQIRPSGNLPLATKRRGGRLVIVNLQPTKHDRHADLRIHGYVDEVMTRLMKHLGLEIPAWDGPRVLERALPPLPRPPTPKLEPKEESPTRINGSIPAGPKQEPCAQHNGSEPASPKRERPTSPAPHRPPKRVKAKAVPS

[2] = biological target: T2, NAD-dependent protein deacetylase sirtuin-1 (Homo sapiens, UniProt Q96EB6); assay: Inhibition of human recombinant SIRT1 assessed as reduction in NAD+-dependent deacetylase activity using Arg-His-Lys-Lys(epsilon-acetyl)-AMC substrate and NAD+ by fluorescence based assay
T2 sequence (Q96EB6 whole entry): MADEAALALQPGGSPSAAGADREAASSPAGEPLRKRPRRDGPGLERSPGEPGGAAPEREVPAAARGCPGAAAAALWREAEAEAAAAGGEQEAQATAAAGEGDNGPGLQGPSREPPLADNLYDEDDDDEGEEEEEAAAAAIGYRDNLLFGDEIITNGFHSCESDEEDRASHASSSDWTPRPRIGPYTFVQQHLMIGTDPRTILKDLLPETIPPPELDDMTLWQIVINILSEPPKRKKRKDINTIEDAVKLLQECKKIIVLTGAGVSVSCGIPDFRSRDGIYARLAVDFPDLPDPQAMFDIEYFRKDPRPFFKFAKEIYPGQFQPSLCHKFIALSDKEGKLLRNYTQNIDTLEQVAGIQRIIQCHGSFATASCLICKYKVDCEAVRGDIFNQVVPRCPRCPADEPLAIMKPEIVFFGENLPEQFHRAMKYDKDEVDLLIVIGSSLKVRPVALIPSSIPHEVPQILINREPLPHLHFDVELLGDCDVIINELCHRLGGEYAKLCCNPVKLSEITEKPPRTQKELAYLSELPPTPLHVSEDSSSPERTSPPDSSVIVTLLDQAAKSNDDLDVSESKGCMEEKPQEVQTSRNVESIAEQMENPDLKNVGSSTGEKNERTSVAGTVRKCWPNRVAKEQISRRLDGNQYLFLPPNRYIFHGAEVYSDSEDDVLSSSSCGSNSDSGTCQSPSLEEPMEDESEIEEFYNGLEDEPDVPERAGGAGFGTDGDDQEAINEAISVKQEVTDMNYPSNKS

[3] = biological target: T3, NAD-dependent protein deacetylase sirtuin-2 (Homo sapiens, UniProt Q8IXJ6); assay: Inhibition of human recombinant SIRT2 assessed as reduction in NAD+-dependent deacetylase activity using Arg-His-Lys-Lys(epsilon-acetyl)-AMC substrate and NAD+ by fluorescence based assay
T3 sequence (Q8IXJ6 whole entry): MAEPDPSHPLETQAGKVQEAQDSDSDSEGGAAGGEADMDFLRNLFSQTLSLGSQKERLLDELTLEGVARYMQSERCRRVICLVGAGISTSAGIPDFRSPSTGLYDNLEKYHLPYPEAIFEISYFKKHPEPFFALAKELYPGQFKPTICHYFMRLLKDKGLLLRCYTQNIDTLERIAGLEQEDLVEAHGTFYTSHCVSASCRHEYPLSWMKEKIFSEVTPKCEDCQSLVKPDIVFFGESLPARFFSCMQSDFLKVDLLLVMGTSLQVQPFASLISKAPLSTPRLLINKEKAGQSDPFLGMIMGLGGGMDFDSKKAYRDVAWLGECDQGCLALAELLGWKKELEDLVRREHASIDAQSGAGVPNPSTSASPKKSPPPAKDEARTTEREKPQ

[4] = biological target: T1, NAD-dependent protein deacylase sirtuin-6; assay: Competitive inhibition of human recombinant SIRT6 assessed as reduction in NAD+-dependent deacetylase activity at 50 uM using fixed Arg-His-Lys-Lys(epsilon-acetyl)-AMC substrate and varying NAD+ by fluorescence based assay based double-reciprocal plot
[5] = biological target: T1, NAD-dependent protein deacylase sirtuin-6; assay: Competitive inhibition of human recombinant SIRT6 assessed as reduction in NAD+-dependent deacetylase activity at 50 uM using varying Arg-His-Lys-Lys(epsilon-acetyl)-AMC substrate and fixed NAD+ by fluorescence based assay based double-reciprocal plot
[6] = biological target: T1, NAD-dependent protein deacylase sirtuin-6; assay: Inhibition of SIRT6 in human BxPC3 cells assessed as increase in H3K9 acetylation by immunoblotting relative to untreated control; assay type: cell-based; set-up: concentration or dose not given beside the values
[7] = biological target: T1, NAD-dependent protein deacylase sirtuin-6; assay: Inhibition of SIRT6 in human BxPC3 cells assessed as increase in 2-NBDG uptake at 100 uM incubated for 18 hrs by glucose uptake assay; assay type: cell-based
[8] = biological target: T1, NAD-dependent protein deacylase sirtuin-6; assay: Inhibition of SIRT6 in human BxPC3 cells assessed as reduction in TNFalpha production at 100 uM incubated for 18 hrs by ELISA method; assay type: cell-based
[9] = biological target: T1, NAD-dependent protein deacylase sirtuin-6; assay: Inhibition of SIRT6 in human BxPC3 cells assessed as potentiation of gemcitabine-induced cytotoxicity at 30 uM incubated for 72 hrs by Cell-titer96 aqueous one assay; assay type: cell-based
BXPC-3 = assay: Toxicity in human BxPC3 cells assessed as reduction in cell viability at 30 uM incubated for 72 hrs by Cell-titer96 aqueous one assay; assay type: cell-based; settings: bxpc-3, 72 h
[10] = Ionisation constant, pKa of the compound; assay type: physicochemical
[11] = Partition coefficient, log P of the compound; assay type: physicochemical; settings: octanol/water
[12] = Intrinsic aqueous solubility in surfactant in 9% Tween 80; assay type: physicochemical; settings: 9% Tween 80 surfactant solution
[13] = Intrinsic aqueous solubility in 1.96% Soluplus solution; assay type: physicochemical
[14] = Intrinsic aqueous solubility in 23% Captisol; assay type: physicochemical
[15] = Intrinsic aqueous solubility in PBS at pH 7.4; assay type: physicochemical
[16] = Fraction unbound in human plasma at 1 ug/ml by rapid equilibrium dialysis; assay type: ADME, cell-free
[17] = Fraction unbound in human plasma at 10 ug/ml by rapid equilibrium dialysis; assay type: ADME, cell-free
[18] = Fraction unbound in mouse plasma at 1 ug/ml by rapid equilibrium dialysis; assay type: ADME, cell-free
[19] = Fraction unbound in mouse plasma at 10 ug/ml by rapid equilibrium dialysis; assay type: ADME, cell-free
[20] = Stability in mouse plasma assessed as half life at 1 uM at 37 degC measured after 4 hrs; assay type: ADME, cell-free; settings: 4 h, 1 µM
[21] = AUC (0 to t) in ICR mouse at 5 mg/kg, ip by LC-MS/MS method; assay type: ADME, organism-based; settings: in vivo
[22] = AUC (0 to infinity) in ICR mouse at 5 mg/kg, ip by LC-MS/MS method; assay type: ADME, organism-based; set-up: dose 5 mg/kg, route intraperitoneal, time infinity; settings: in vivo
[23] = MRT (0 to infinity) in ICR mouse at 5 mg/kg, ip by LC-MS/MS method; assay type: ADME, organism-based; settings: in vivo
[24] = Terminal half life in ICR mouse at 5 mg/kg, ip by LC-MS/MS method; assay type: ADME, organism-based; settings: in vivo, read-out: beta t1/2 (converted)
[25] = Tmax in ICR mouse at 5 mg/kg, ip by LC-MS/MS method; assay type: ADME, organism-based; settings: in vivo
[26] = Cmax in ICR mouse at 5 mg/kg, ip by LC-MS/MS method; assay type: ADME, organism-based; set-up: dose 5 mg/kg, route intraperitoneal; settings: in vivo
Mus musculus = assay: Toxicity in ICR mouse assessed as induction of abnormalities at 5 mg/kg, ip; assay type: organism-based; settings: in vivo

In the case of `O=C(Nc1ccc(O)c(C(=O)O)c1)c1ccc(NC(=O)c2ccco2)cc1`, the inhibition [1] is reported as 100%, the IC50 [2] is reported as 783 µM and the IC50 [3] is reported as 453 µM. The inhibition [4] was “Active”, the inhibition [5] was “Active” and the fold change (FC) [6] was 1.9. The fold change (FC) [7] was 1.4, the inhibition [8] was 78% and the inhibition [9] was “Active”. The Activity (BXPC-3) was “Non-Toxic”, the pKa [10] was 2.58 and the logP [11] was 2.6. The solubility [12] was 1700 µg/mL (≈ 4640 µM), the solubility [13] was 760 µg/mL (≈ 2070 µM) and the solubility [14] was 650 µg/mL (≈ 1770 µM). For the same molecule, the solubility [15] was 1400 µg/mL (≈ 3820 µM), the fraction unbound at 1 ug/ml [16] was 0.019 and the fraction unbound at 10 ug/ml [17] was 0.024. For the same molecule, the fraction unbound at 1 ug/ml [18] was 0.029, the fraction unbound at 10 ug/ml [19] was 0.046 and the t1/2 [20] was “Stable”. It also gave an AUC(0-t) [21] of 2830 ng·h/mL, an AUC(0-inf) [22] of 2840 ng·h/mL and an MRT inf [23] of 48.6 min. The half-life [24] was 91.8 min, the Tmax [25] was 10.2 min and the Cmax [26] was 3890 ng/mL. For the same molecule, the Activity (Mus musculus) was “Non-Toxic”.
